These results are taken from patent US7060686B2, “Anti-inflammatory compounds derived from Pseudopterogorgia elisabethae” (The Regents of the University of California, priority 2000, dated 2006).

Test [1] has as its system phorbol 12-myristate 13-acetate (PMA) induced ear edema. In words: Mouse ear anti-inflammatory assay. The following applies: for inhibition in vivo at 25 µg/ear: Mus musculus, 200 min; for inhibition in vivo at 25 µg/ear / Edema (mg ± sem) / % Inhibition: topical, 200 minutes; for inhibition in vivo at 25 µg/ear / % Inhibition: 25 μg/ear with PMA, decrease in edema relative to PMA control group; for Relative Potency, Pseudopterosin A: potency estimate relative to Pseudopterosin A (historical ED50 15 μg/ear); for Relative Potency, Pseudopterosin E: potency estimate relative to Pseudopterosin E (historical ED50 40 μg/ear); for Edema (mg ± sem): 25 μg/ear test compound with 2 μg/ear PMA, left minus right ear bore weight, N=5. The class given is in vivo. The method, then: A. Mouse Ear Anti-Inflammatory Assay Each compound was topically applied in acetone to the inside pinnae of the ear of a mouse in a solution containing the edema-causing irritant, phorbol 12-myristate 13-acetate (PMA). 2 μg per ear of PMA alone or 25 μg per ear of test compound in combination with PMA was applied to the left ear of each mouse and acetone (control) was applied to each right ear of each mouse. There were 5 mice per treatment group. After incubating 200 minutes, the mice were sacrificed, the ears were removed, and bores were taken and weighed. Edema (inflammation) was measured by subtracting the weight of the right ear from the weight of the left ear. Results were recorded as % decrease (inhibition) or % increase (potentiation) in edema relative to the PMA control group edema.

Test [2] shares this test system. The following applies: Jacobs' historical standards; cited from earlier work.

`CC(=O)OC1C(Oc2c(C)c3c4c(c2O)[C@@H](C)CC[C@@H]4[C@@H](C)CC3C=C(C)C)OCC(O)C1O` (stereo partly shown) [Compound 1]: in test [1], the inhibition in vivo at 25 µg/ear came to 68%; the “Relative Potency, Pseudopterosin A” value is on record as 118%; the “Relative Potency, Pseudopterosin E” value is listed as 324%; the “Edema (mg ± sem)” value came to 2.1 ± 0.5 mg.

For the compound `CC(=O)OC1C(O)COC(Oc2c(C)c3c4c(c2O)[C@@H](C)CC[C@@H]4[C@@H](C)CC3C=C(C)C)C1O` (stereo partly shown) [Compound 2], in test [1], the inhibition in vivo at 25 µg/ear came out at 88%, the “Edema (mg ± sem)” value stood at 0.8 ± 0.2 mg and the “% Inhibition” value is on record as “highest percent inhibition”.

Regarding `CC(=O)OC1COC(Oc2c(C)c3c4c(c2O)[C@@H](C)CC[C@@H]4[C@@H](C)CC3C=C(C)C)C(O)C1O` (stereo partly shown) [Compound 3], in test [1], the inhibition in vivo at 25 µg/ear was 69%; the “Relative Potency, Pseudopterosin A” value is listed as 123%; the “Relative Potency, Pseudopterosin E” value is recorded as 337%; the “Edema (mg ± sem)” value worked out at 0.9 ± 0.2 mg.

In the case of `CC(=O)OC1C(Oc2c(C)cc3c(c2O)[C@@H](C)CC[C@@H]3[C@@H](C)CCC=C(C)C)OC(C)C(O)C1O` (stereo partly shown) [Compound 4], in test [1], the inhibition in vivo at 25 µg/ear is 88%, the “Edema (mg ± sem)” value was found to be 0.8 ± 0.2 mg and the “% Inhibition” value was “highest percent inhibition”.

Turning to `CC(=O)OC1C(O)C(C)OC(Oc2c(C)cc3c(c2O)[C@@H](C)CC[C@@H]3[C@@H](C)CCC=C(C)C)C1O` (stereo partly shown) [Compound 5], in test [1], the inhibition in vivo at 25 µg/ear was found to be 65%; the “Relative Potency, Pseudopterosin A” value was 103%; the “Relative Potency, Pseudopterosin E” value is reported as 288%; the “Edema (mg ± sem)” value stood at 2.4 ± 0.6 mg.

Consider `CC(=O)OC1C(C)OC(Oc2c(C)cc3c(c2O)[C@@H](C)CC[C@@H]3[C@@H](C)CCC=C(C)C)C(O)C1O` (stereo partly shown) [Compound 6], for which, in test [1], the inhibition in vivo at 25 µg/ear worked out at 74%; the “Relative Potency, Pseudopterosin A” value is given as 148%; the “Relative Potency, Pseudopterosin E” value is reported as 410%; the “Edema (mg ± sem)” value is given as 1.8 ± 0.3 mg.

`CC(C)=CCC[C@H](C)[C@H]1CC[C@H](C)C2=C1C(=O)C(C)=C(O)C2=O` [Compound 7, elisabethadione]: in test [1], the inhibition in vivo at 25 µg/ear was 83% and the “Edema (mg ± sem)” value worked out at 1.2 ± 0.1 mg.

On to `CC(C)=C[C@H]1C[C@H](C)[C@H]2CC[C@H](C)C3=C2C1(O)C(C)=C(O)C3=O` (stereo partly shown) [Compound 8, elisabethadiol], for which, in test [1], the inhibition in vivo at 25 µg/ear came to 9% and the “Edema (mg ± sem)” value is given as 6.2 ± 0.6 mg.

For `CC(C)=C[C@H]1C[C@H](C)[C@H]2CC[C@H](C)c3c(O[C@@H]4OC[C@@H](O)[C@H](O)[C@H]4O)c(O)c(C)c1c32` [Pseudopterosin A], the ED50 in test [2] was 15 μg/ear.

`CC(C)=C[C@H]1C[C@H](C)[C@H]2CC[C@H](C)c3c(O)c(O[C@@H]4O[C@@H](C)[C@@H](O)[C@@H](O)[C@@H]4O)c(C)c1c32` [Pseudopterosin E]: the ED50 in test [2] was 40 μg/ear.
